Test results reported in PubChem BioAssay AID1963975 (Molecular Pharmacology Branch, DTP, NCI, 2024).

System: 624824-186-R-J2-PDC multicell spheroids, viability
Assay: Anticancer human tumor 624824-186-R-J2-PDC patient-derived colon adenocarcinoma cell line growth inhibition [PI3K]
Conditions: for viability, T/C: stronger effect = lower value
Procedure, shortened: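 Combination activity was assessed by viability in multicellular tumor spheroids carrying HUVEC and MSC components. Agents were tested with PI3K inhibitors from a Cmax-based top dose (or 10 microM) downward in half-log increments.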

[1] = curve of first compound, second compound 0.00316 µM
[2] = curve of first compound, second compound 0.01 µM
[3] = curve of first compound, second compound 0.0316 µM
[4] = curve of first compound, second compound 0.1 µM
[5] = curve of first compound, second compound 0.316 µM
[6] = curve of first compound, second compound 1 µM
[7] = second compound 0.00316 µM, first compound 0.0316 µM
[8] = second compound 0.00316 µM, first compound 0.1 µM
[9] = second compound 0.00316 µM, first compound 0.316 µM
[10] = second compound 0.00316 µM, first compound 1 µM
[11] = second compound 0.00316 µM, first compound 3.16 µM
[12] = second compound 0.00316 µM, first compound 10 µM
[13] = second compound 0.01 µM, first compound 0.0316 µM
[14] = second compound 0.01 µM, first compound 0.1 µM
[15] = second compound 0.01 µM, first compound 0.316 µM
[16] = second compound 0.01 µM, first compound 1 µM
[17] = second compound 0.01 µM, first compound 3.16 µM
[18] = second compound 0.01 µM, first compound 10 µM
[19] = second compound 0.0316 µM, first compound 0.0316 µM
[20] = second compound 0.0316 µM, first compound 0.1 µM
[21] = second compound 0.0316 µM, first compound 0.316 µM
[22] = second compound 0.0316 µM, first compound 1 µM
[23] = second compound 0.0316 µM, first compound 3.16 µM
[24] = second compound 0.0316 µM, first compound 10 µM
[25] = second compound 0.1 µM, first compound 0.0316 µM
[26] = second compound 0.1 µM, first compound 0.1 µM
[27] = second compound 0.1 µM, first compound 0.316 µM
[28] = second compound 0.1 µM, first compound 1 µM
[29] = second compound 0.1 µM, first compound 3.16 µM
[30] = second compound 0.1 µM, first compound 10 µM
[31] = second compound 0.316 µM, first compound 0.0316 µM
[32] = second compound 0.316 µM, first compound 0.1 µM
[33] = second compound 0.316 µM, first compound 0.316 µM
[34] = second compound 0.316 µM, first compound 1 µM
[35] = second compound 0.316 µM, first compound 3.16 µM
[36] = second compound 0.316 µM, first compound 10 µM
[37] = second compound 1 µM, first compound 0.0316 µM
[38] = second compound 1 µM, first compound 0.1 µM
[39] = second compound 1 µM, first compound 0.316 µM
[40] = second compound 1 µM, first compound 1 µM
[41] = second compound 1 µM, first compound 3.16 µM
[42] = second compound 1 µM, first compound 10 µM
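Note: spheroids exposed to agents for 7 days before viability read.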
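Throughout, for viability, T/C: 100% = DMSO vehicle treated spheroids.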

SMILES: C[C@@H](NC(=O)c1ncnc(N)c1Cl)c1ncc(C(=O)Nc2cc(C(F)(F)F)c(Cl)cn2)s1 + COc1c(OCCCN2CCOCC2)ccc2c3n(c(=NC(=O)c4cnc(N)nc4)nc12)CCN3
- IC50 [1]: > 10 µM
- IC50 [2]: > 10 µM
- IC50 [3]: > 10 µM
- IC50 [4]: 1.02 µM
- IC50 [5]: 0.505 µM
- IC50 [6]: 0.511 µM
- viability, T/C [7]: 106%
- viability, T/C [8]: 112%
- viability, T/C [9]: 93.5%
- viability, T/C [10]: 84.4%
- viability, T/C [11]: 62.2%
- viability, T/C [12]: 65.2%
- viability, T/C [13]: 95.5%
- viability, T/C [14]: 119%
- viability, T/C [15]: 106%
- viability, T/C [16]: 70.1%
- viability, T/C [17]: 61.6%
- viability, T/C [18]: 62.6%
- viability, T/C [19]: 91.3%
- viability, T/C [20]: 93%
- viability, T/C [21]: 88.9%
- viability, T/C [22]: 63.9%
- viability, T/C [23]: 63.4%
- viability, T/C [24]: 48%
- viability, T/C [25]: 88.7%
- viability, T/C [26]: 73.9%
- viability, T/C [27]: 64.6%
- viability, T/C [28]: 50.2%
- viability, T/C [29]: 38.7%
- viability, T/C [30]: 33.1%
- viability, T/C [31]: 77.2%
- viability, T/C [32]: 59.9%
- viability, T/C [33]: 55.7%
- viability, T/C [34]: 46.4%
- viability, T/C [35]: 33.8%
- viability, T/C [36]: 28.9%
- viability, T/C [37]: 62.4%
- viability, T/C [38]: 63.4%
- viability, T/C [39]: 52.1%
- viability, T/C [40]: 42.5%
- viability, T/C [41]: 39.2%
- viability, T/C [42]: 26.1%

SMILES: Cn1ncnc1[C@H]1c2n[nH]c(=O)c3cc(F)cc(c23)N[C@@H]1c1ccc(F)cc1 + CC(Nc1ccc2c(c1)OCCn1cc(N3C(=O)OCC3C(F)F)nc1-2)C(N)=O
- IC50 [1]: > 0.1 µM
- IC50 [2]: > 0.1 µM
- IC50 [3]: > 0.1 µM
- IC50 [4]: > 0.1 µM
- IC50 [5]: > 0.1 µM
- IC50 [6]: > 0.1 µM
- viability, T/C (second compound 0.00316 µM, first compound 0.000316 µM): 78.6%
- viability, T/C (second compound 0.00316 µM, first compound 0.001 µM): 115%
- viability, T/C (second compound 0.00316 µM, first compound 0.00316 µM): 96.8%
- viability, T/C (second compound 0.00316 µM, first compound 0.01 µM): 95.4%
- viability, T/C [7]: 94.8%
- viability, T/C [8]: 82.2%
- viability, T/C (second compound 0.01 µM, first compound 0.000316 µM): 112%
- viability, T/C (second compound 0.01 µM, first compound 0.001 µM): 82.4%
- viability, T/C (second compound 0.01 µM, first compound 0.00316 µM): 92.9%
- viability, T/C (second compound 0.01 µM, first compound 0.01 µM): 90.4%
- viability, T/C [13]: 93.1%
- viability, T/C [14]: 91.5%
- viability, T/C (second compound 0.0316 µM, first compound 0.000316 µM): 96.7%
- viability, T/C (second compound 0.0316 µM, first compound 0.001 µM): 97.1%
- viability, T/C (second compound 0.0316 µM, first compound 0.00316 µM): 101%
- viability, T/C (second compound 0.0316 µM, first compound 0.01 µM): 81.3%
- viability, T/C [19]: 90.5%
- viability, T/C [20]: 89.5%
- viability, T/C (second compound 0.1 µM, first compound 0.000316 µM): 108%
- viability, T/C (second compound 0.1 µM, first compound 0.001 µM): 89%
- viability, T/C (second compound 0.1 µM, first compound 0.00316 µM): 81.2%
- viability, T/C (second compound 0.1 µM, first compound 0.01 µM): 89.8%
- viability, T/C [25]: 74.4%
- viability, T/C [26]: 84.9%
- viability, T/C (second compound 0.316 µM, first compound 0.000316 µM): 90.7%
- viability, T/C (second compound 0.316 µM, first compound 0.001 µM): 78%
- viability, T/C (second compound 0.316 µM, first compound 0.00316 µM): 81.9%
- viability, T/C (second compound 0.316 µM, first compound 0.01 µM): 98.3%
- viability, T/C [31]: 74.8%
- viability, T/C [32]: 86.1%
- viability, T/C (second compound 1 µM, first compound 0.000316 µM): 91.6%
- viability, T/C (second compound 1 µM, first compound 0.001 µM): 85.3%
- viability, T/C (second compound 1 µM, first compound 0.00316 µM): 90%
- viability, T/C (second compound 1 µM, first compound 0.01 µM): 86.2%
- viability, T/C [37]: 110%
- viability, T/C [38]: 77.9%

SMILES: CC(Nc1ccc2c(c1)OCCn1cc(N3C(=O)OCC3C(F)F)nc1-2)C(N)=O (configuration not stated)
- viability, T/C (compound 0.01 µM): 95% [middle of 8 runs]
- viability, T/C (compound 0.0316 µM): 84.8% [middle of 8 runs]
- viability, T/C (compound 0.1 µM): 90.3% [middle of 8 runs]
- viability, T/C (compound 0.316 µM): 89.7% [middle of 8 runs]
- viability, T/C (compound 1 µM): 95.2% [middle of 8 runs]
- IC50 (compound alone, run of 06/12/2023): > 1 µM

SMILES: Cn1ncc(Cl)c1-c1cc(C(=O)NC(CN)Cc2cccc(F)c2)sc1Cl (configuration not stated) + COc1c(OCCCN2CCOCC2)ccc2c3n(c(=NC(=O)c4cnc(N)nc4)nc12)CCN3
- IC50 [1]: > 10 µM
- IC50 [2]: 8.26 µM
- IC50 [3]: 8.19 µM
- IC50 [4]: 7.47 µM
- IC50 [5]: 5.31 µM
- IC50 [6]: 4.55 µM
- viability, T/C [7]: 86.6%
- viability, T/C [8]: 72%
- viability, T/C [9]: 90.8%
- viability, T/C [10]: 87.7%
- viability, T/C [11]: 72.7%
- viability, T/C [12]: 50%
- viability, T/C [13]: 118%
- viability, T/C [14]: 81.2%
- viability, T/C [15]: 93.7%
- viability, T/C [16]: 81.6%
- viability, T/C [17]: 62.6%
- viability, T/C [18]: 45.5%
- viability, T/C [19]: 86.1%
- viability, T/C [20]: 85.5%
- viability, T/C [21]: 89.2%
- viability, T/C [22]: 74%
- viability, T/C [23]: 71%
- viability, T/C [24]: 45.4%
- viability, T/C [25]: 78.2%
- viability, T/C [26]: 81.3%
- viability, T/C [27]: 68.3%
- viability, T/C [28]: 69.2%
- viability, T/C [29]: 64.7%
- viability, T/C [30]: 44.9%
- viability, T/C [31]: 80.9%
- viability, T/C [32]: 66.6%
- viability, T/C [33]: 64.7%
- viability, T/C [34]: 66.9%
- viability, T/C [35]: 63.4%
- viability, T/C [36]: 36.3%
- viability, T/C [37]: 68.5%
- viability, T/C [38]: 58.3%
- viability, T/C [39]: 61.6%
- viability, T/C [40]: 57.9%
- viability, T/C [41]: 57.8%
- viability, T/C [42]: 35.8%
